Assay results published in article PMC8395285, “Novel 2-(Adamantan-1-ylamino)Thiazol-4(5H)-One Derivatives and Their Inhibitory Activity towards 11β-HSD1—Synthesis, Molecular Docking and In Vitro Studies” (International Journal of Molecular Sciences, 2021).

Legend:
11β-HSD1 = target: T1, 11β-HSD1 (Homo sapiens, UniProt P28845); experiment: Inhibition of 11β-HSD1 (cortisone to cortisol, human liver microsomes, cortisol ELISA); format: biochemical; conditions: for inhibition at 10 µM: 10 µM compound, 2.5 h at 37 °C; for IC50: concentrations 0.625-10.0 µM, read from the chart
T1 construct: Human liver microsomes were used as a source of 11β-HSD1 enzyme; tissue XenoTech Lot No.1410013; host or cells: pooled human liver microsomes, mixed gender
T1 sequence (P28845 whole entry): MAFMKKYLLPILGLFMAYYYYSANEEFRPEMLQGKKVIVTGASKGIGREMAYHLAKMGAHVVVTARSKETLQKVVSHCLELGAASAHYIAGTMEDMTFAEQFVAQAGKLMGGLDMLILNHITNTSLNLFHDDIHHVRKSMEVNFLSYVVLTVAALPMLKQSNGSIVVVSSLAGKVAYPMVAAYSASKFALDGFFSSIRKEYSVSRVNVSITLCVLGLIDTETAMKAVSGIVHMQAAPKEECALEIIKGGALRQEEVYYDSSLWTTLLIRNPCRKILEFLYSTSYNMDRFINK
Method: To stop the reaction, 10 µL of a 100 µM solution of 18β-glycyrrhetinic acid in PBS was added. The level of cortisol obtained in the reaction was measured by commercially available ELISA kit.
(§1) As a control, analogous tests without the addition of inhibitors were used. Half the inhibitory concentration (causing 50% reduction of cortisol or cortisone) was read from the chart.

11β-HSD2 = target: T2, 11β-HSD2 (Homo sapiens, UniProt P80365); experiment: Inhibition of 11β-HSD2 (cortisol to cortisone, human microsomes, cortisol ELISA); format: biochemical; conditions: 10 µM compound, 2.5 h at 37 °C
T2 construct: Human liver microsomes were used as a source of 11β-HSD2 enzyme; tissue XenoTech Lot No. 1710160; host or cells: human kidney microsomes, mixed gender (the method paragraph says human liver microsomes)
T2 sequence (P80365 1-405): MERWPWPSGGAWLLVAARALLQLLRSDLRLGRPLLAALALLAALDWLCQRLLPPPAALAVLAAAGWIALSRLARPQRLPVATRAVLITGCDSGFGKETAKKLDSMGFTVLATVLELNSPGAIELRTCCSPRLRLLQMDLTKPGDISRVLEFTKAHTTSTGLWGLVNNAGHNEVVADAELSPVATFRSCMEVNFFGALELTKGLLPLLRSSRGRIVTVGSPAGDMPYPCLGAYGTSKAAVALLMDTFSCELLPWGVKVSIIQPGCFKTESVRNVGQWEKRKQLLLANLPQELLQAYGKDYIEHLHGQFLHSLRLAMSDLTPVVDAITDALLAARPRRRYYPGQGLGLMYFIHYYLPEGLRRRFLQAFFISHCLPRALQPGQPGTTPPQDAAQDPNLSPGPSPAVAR
Method: […] […] The level of unreacted cortisol was measured by commercially available ELISA kit.
as §1

inhibition at 10 µM (11β-HSD1)	IC50 (11β-HSD1)	inhibition at 10 µM (11β-HSD2)	melting point	Compound
62.1 ± 3.59%	3.52 ± 0.19 µM	44.7 ± 4.19%	265 to 267 °C	CC1SC(NC23CC4CC(CC(C4)C2)C3)=NC1=O (stereo not drawn) [3b, 2-(adamantan-1-ylamino)-5-methylthiazol-4(5H)-one]
69.2 ± 5.12%	5.44 ± 0.32 µM	14.4 ± 1.16%	257 to 259 °C	CCC1SC(NC23CC4CC(CC(C4)C2)C3)=NC1=O (stereo not drawn) [3c, 2-(adamantan-1-ylamino)-5-ethylthiazol-4(5H)-one]
72.4 ± 2.63%	3.23 ± 0.26 µM	28.9 ± 4.11%	247 to 249 °C	CCCC1SC(NC23CC4CC(CC(C4)C2)C3)=NC1=O (stereo not drawn) [3d, 2-(adamantan-1-ylamino)-5-propylthiazol-4(5H)-one]
76.4 ± 2.55%	1.19 ± 0.21 µM	16.4 ± 2.06%	239 to 241 °C	CC(C)C1SC(NC23CC4CC(CC(C4)C2)C3)=NC1=O (stereo not drawn) [3e, 2-(adamantan-1-ylamino)-5-isopropylthiazol-4(5H)-one]
15.3 ± 0.49%	> 10 µM	41.8 ± 6.12%	–	O=C1N=C(NC23CC4CC(CC(C4)C2)C3)SC1c1ccc(Br)cc1 (stereo not drawn) [3h, 2-(adamantan-1-ylamino)-5-(4-bromophenyl)thiazol-4(5H)-one]

Further lines, the compound ahead of its results:

Compound	inhibition at 10 µM (11β-HSD1)	IC50 (11β-HSD1)	inhibition at 10 µM (11β-HSD2)	melting point
O=C1CSC(NC23CC4CC(CC(C4)C2)C3)=N1 [3a, 2-(adamantan-1-ylamino)thiazol-4(5H)-one]	22.3 ± 5.31%	> 10 µM	29.8 ± 4.21%	271 to 273 °C
CC1(C)SC(NC23CC4CC(CC(C4)C2)C3)=NC1=O [3f, 2-(adamantan-1-ylamino)-5,5-dimethylthiazol-4(5H)-one]	66 ± 1.12%	6.11 ± 0.62 µM	24.5 ± 3.24%	208 to 210 °C
O=C1N=C(NC23CC4CC(CC(C4)C2)C3)SC1c1ccccc1 (stereo not drawn) [3g, 2-(adamantan-1-ylamino)-5-phenylthiazol-4(5H)-one]	46.3 ± 5.53%	> 10 µM	18.3 ± 3.18%	–
O=C1N=C(NC23CC4CC(CC(C4)C2)C3)SC12CCCCC2 [3i, 2-(adamantan-1-ylamino)-1-thia-3-azaspiro [4.5]dec-2-en-4-one]	82.8 ± 2.05%	0.31 ± 0.05 µM	> 44%	268 to 270 °C
O=C1N=C(NC23CC4CC(CC(C4)C2)C3)SC12CCC2 [3j, 6-(adamantan-1-ylamino)-5-thia-7-azaspiro[3.4]oct-6-en-8-one]	74.1 ± 2.85%	3.32 ± 0.24 µM	41.4 ± 4.22%	265 to 266 °C
CC1(C)[C@@H](OC(=O)CCC(=O)O)CC[C@]2(C)[C@H]3C(=O)C=C4[C@@H]5C[C@@](C)(C(=O)O)CC[C@]5(C)CC[C@@]4(C)[C@]3(C)CC[C@@H]12 [carbenoxolone, reference compound]	84.8 ± 6.23%	–	–	–
